Among the test systems are HCT-116 colon; HCT-15 colon; HOP-92 NSCLC; NCI-H522 lung; OVCAR-8 ovarian; SF-268 CNS; SK-MEL-28 melanoma; SK-OV-3 ovarian; SR leukemia; TK-10 renal; NCI-H226 lung; OVCAR-5 ovarian.
Common to all, as to assay: inhibition of tumour cell growth, NCI panel, 48 h

SMILES strings stand for the structures.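 Values below derive from 48-hour exposures of cells grown in 96-well plates, with endpoints linearly interpolated between the two concentrations bracketing the appropriate inhibition level. TGI: concentration producing complete growth inhibition.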

Regarding `C=CCC1(C(=O)OC)CCC/C(=N\O)C1` (stereo not given), the TGI in the assay with HCT-116 colon, in the assay on HCT-15 colon, with HOP-92 NSCLC, with NCI-H522 lung, with OVCAR-8 ovarian and in the assay on SF-268 CNS was above 10 µM each time. Besides, the TGI in the assay with SK-MEL-28 melanoma, in the assay on SK-OV-3 ovarian, with SR leukemia and in the assay with TK-10 renal was above 10 µM in each case.
With `O=C(O)/C=C/c1ccc(Oc2ccccc2C(=O)O)o1`, the TGI in the assay on HCT-116 colon, with HCT-15 colon, with HOP-92 NSCLC, in the assay on NCI-H522 lung, in the assay with OVCAR-8 ovarian and with SF-268 CNS was above 10 µM throughout. Further, the TGI in the assay on SK-MEL-28 melanoma, in the assay with SK-OV-3 ovarian, in the assay with SR leukemia and in the assay with TK-10 renal was above 10 µM in each case.
On to `CCn1c(SCC(=O)N/N=C2\SCC(=O)N2c2ccc(C)cc2)nc2ccccc2c1=O`, for which the TGI with HCT-116 colon was 35.9 µM; with HCT-15 colon, above 100 µM; with NCI-H226 lung, 64.8 µM; in the assay with NCI-H522 lung, 62.1 µM; in the assay with OVCAR-5 ovarian, 48.2 µM; with OVCAR-8 ovarian it was 35.5 µM. Also, the TGI in the assay with SF-268 CNS stood at 47.7 µM; in the assay on SK-MEL-28 melanoma, 48.7 µM; in the assay with SK-OV-3 ovarian, 36 µM; with SR leukemia, 47.2 µM; in the assay with TK-10 renal, 31 µM.
For the compound `CC(=O)OCc1c(O)c2c([nH]c1=O)CCc1ccccc1-2`, the TGI is 110 µM in the assay on HCT-116 colon; 112 µM in the assay on HCT-15 colon; 182 µM in the assay with HOP-92 NSCLC; above 350 µM in the assay on NCI-H226 lung; 84.6 µM in the assay on NCI-H522 lung; 291 µM in the assay with OVCAR-8 ovarian. For the same compound, the TGI with SF-268 CNS is 221 µM; in the assay with SK-MEL-28 melanoma, 130 µM; in the assay on SK-OV-3 ovarian it was above 350 µM; in the assay on SR leukemia, above 350 µM; in the assay with TK-10 renal, 186 µM.
Consider `ClCc1nc2ccccc2[nH]1`, for which the TGI in the assay on HCT-116 colon, in the assay on HCT-15 colon, in the assay with HOP-92 NSCLC, in the assay with NCI-H226 lung, with NCI-H522 lung and in the assay on OVCAR-5 ovarian was above 100 µM throughout. The TGI in the assay with OVCAR-8 ovarian, with SF-268 CNS, in the assay on SK-MEL-28 melanoma, in the assay with SR leukemia and with TK-10 renal was above 100 µM each time.
`COc1ccc(CCN2CCN(CCCc3ccccc3)CC2)cc1`: the TGI with HCT-116 colon, with HCT-15 colon, in the assay with NCI-H226 lung, in the assay with NCI-H522 lung, in the assay with OVCAR-5 ovarian and in the assay on OVCAR-8 ovarian was above 100 µM each time. Besides, the TGI in the assay on SF-268 CNS, in the assay on SK-MEL-28 melanoma, with SK-OV-3 ovarian, with SR leukemia and in the assay on TK-10 renal was above 100 µM in each case.
On to `O=C1C(Cl)=C(Cl)C(=O)C(CCNc2nccs2)=C1Cl`, for which the TGI in the assay with HCT-116 colon was 68.4 µM; with HCT-15 colon it was 43.7 µM; with HOP-92 NSCLC, 58.2 µM; in the assay on NCI-H522 lung, 51.3 µM; with OVCAR-5 ovarian, above 100 µM; in the assay with OVCAR-8 ovarian, 87.3 µM. Moreover, the TGI is above 100 µM with SF-268 CNS; above 100 µM with SK-MEL-28 melanoma; above 100 µM in the assay on SK-OV-3 ovarian; above 100 µM with SR leukemia; 63.6 µM with TK-10 renal.
For `COC(NC(=O)Nc1ccc(C)cc1)(C(F)(F)F)C(F)(F)F`, the TGI is above 100 µM in the assay with HCT-116 colon; 93.3 µM in the assay on HOP-92 NSCLC; above 100 µM in the assay on NCI-H226 lung; 60.1 µM in the assay on NCI-H522 lung; above 100 µM in the assay with OVCAR-5 ovarian; 78.5 µM in the assay with OVCAR-8 ovarian. The TGI in the assay on SF-268 CNS was above 100 µM; with SK-MEL-28 melanoma it was above 100 µM; with SK-OV-3 ovarian it was 76.4 µM; in the assay with SR leukemia, above 100 µM; in the assay with TK-10 renal it was above 100 µM.
In the case of `COC(=O)C1=C(C)NC(=O)N2[C@@H](CCOCc3ccccc3)CC[C@@H]12`, the TGI with HCT-15 colon, in the assay on HOP-92 NSCLC, in the assay with NCI-H226 lung, in the assay with NCI-H522 lung, with OVCAR-5 ovarian and in the assay on OVCAR-8 ovarian was above 50 µM throughout. In addition, the TGI in the assay with SF-268 CNS, in the assay on SK-MEL-28 melanoma, in the assay on SK-OV-3 ovarian, in the assay on SR leukemia and in the assay on TK-10 renal was above 50 µM in each case.
Turning to `COC(=O)c1cc2c(c(C(=O)OC)c1)CCC2`, the TGI in the assay with HCT-116 colon, in the assay on HCT-15 colon, in the assay with HOP-92 NSCLC, in the assay with NCI-H522 lung, with OVCAR-5 ovarian and in the assay on OVCAR-8 ovarian was above 100 µM each time. In addition, the TGI in the assay on SF-268 CNS was above 100 µM; with SK-MEL-28 melanoma it was above 100 µM; in the assay on SK-OV-3 ovarian, above 100 µM; in the assay on SR leukemia, 86.8 µM; in the assay on TK-10 renal it was above 100 µM.
Turning to `COc1cc(C2C=C(c3ccccc3)Oc3cc4c(cc32)OCO4)cc(OC)c1OC` (stereo not given), the TGI was 9.44 µM in the assay on HCT-116 colon; above 100 µM with HCT-15 colon; above 100 µM in the assay on HOP-92 NSCLC; above 100 µM in the assay with OVCAR-5 ovarian; above 32.6 µM in the assay on OVCAR-8 ovarian; above 100 µM with SF-268 CNS. Further, the TGI in the assay on SK-MEL-28 melanoma, with SK-OV-3 ovarian, with SR leukemia and in the assay on TK-10 renal was above 100 µM throughout.
Regarding `NCC(=O)Nc1ccccc1`, the TGI in the assay with HCT-116 colon, in the assay with HCT-15 colon, in the assay with HOP-92 NSCLC, in the assay on NCI-H226 lung, with NCI-H522 lung and with OVCAR-5 ovarian was above 100 µM each time. Besides, the TGI in the assay with OVCAR-8 ovarian, with SF-268 CNS, with SK-MEL-28 melanoma, with SR leukemia and in the assay on TK-10 renal was above 100 µM each time.
In the case of `CCOP(=O)(OCC)Oc1c(OC)c2[nH]c(C(=O)OC)cc2c2c(C(=O)O)c[nH]c12`, the TGI in the assay with HCT-116 colon, with HCT-15 colon, with HOP-92 NSCLC, with NCI-H522 lung, with OVCAR-5 ovarian and in the assay with OVCAR-8 ovarian was above 100 µM each time. Further, the TGI with SF-268 CNS, in the assay on SK-MEL-28 melanoma, with SK-OV-3 ovarian, in the assay with SR leukemia and in the assay with TK-10 renal was above 100 µM throughout.

For the origin of these results see PubChem BioAssay (NCI).
